Assay results from BigSolDB 2.1.

C1=Cc2cccc3cccc1c23
Details | solubility (mole fraction)
in ethanol, 278.1 K | 0.00462
in ethanol, 283.53 K | 0.00579
in ethanol, 288.25 K | 0.00709
in ethanol, 293.25 K | 0.00891
in ethanol, 298.2 K | 0.0108
in ethanol, 303.2 K | 0.0133
in ethanol, 308.2 K | 0.0165
in ethanol, 313.05 K | 0.0197
in ethanol, 318.25 K | 0.0245
in ethanol, 323.15 K | 0.0296
in isopropanol, 278.3 K | 0.00469
in isopropanol, 283.07 K | 0.00592
in isopropanol, 288.33 K | 0.0077
in isopropanol, 293.2 K | 0.00967
in isopropanol, 298.07 K | 0.012
in isopropanol, 303.3 K | 0.0152
in isopropanol, 308.05 K | 0.0189
in isopropanol, 312.95 K | 0.0236
in isopropanol, 318.4 K | 0.0302
in isopropanol, 323.25 K | 0.0372
in n-butanol, 278.25 K | 0.0101
in n-butanol, 283.05 K | 0.0122
in n-butanol, 288.05 K | 0.0154
in n-butanol, 293.25 K | 0.019
in n-butanol, 298.25 K | 0.0237
in n-butanol, 303.15 K | 0.029
in n-butanol, 308.1 K | 0.0349
in n-butanol, 313.2 K | 0.0427
in n-butanol, 318.05 K | 0.0525
in n-butanol, 323.05 K | 0.0639
in toluene, 278.47 K | 0.104
in toluene, 283.33 K | 0.122
in toluene, 288.1 K | 0.142
in toluene, 293.15 K | 0.167
in toluene, 298.23 K | 0.194
in toluene, 303.15 K | 0.224
in toluene, 307.95 K | 0.256
in toluene, 312.95 K | 0.299
in toluene, 318.3 K | 0.346
in toluene, 323.2 K | 0.398
